Measurements as given in publication PMC7307922 (Journal of Medicinal Chemistry, 2020).
Where two headings read alike, the source gives them in different places.

Target: T1, hFFA3 (Homo sapiens, UniProt O14843)
T1 sequence (O14843 1-346): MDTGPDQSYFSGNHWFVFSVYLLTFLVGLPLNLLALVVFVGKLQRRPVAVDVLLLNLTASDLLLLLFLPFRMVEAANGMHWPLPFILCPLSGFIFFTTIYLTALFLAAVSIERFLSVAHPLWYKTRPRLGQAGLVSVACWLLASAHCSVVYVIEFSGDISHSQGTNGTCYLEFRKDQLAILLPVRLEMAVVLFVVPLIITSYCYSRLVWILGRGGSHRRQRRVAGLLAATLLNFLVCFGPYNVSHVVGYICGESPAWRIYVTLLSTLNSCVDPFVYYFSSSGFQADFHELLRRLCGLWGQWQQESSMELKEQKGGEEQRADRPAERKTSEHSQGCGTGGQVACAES
Assay: cell-based
Settings: for Emax: HEK293, read-out: cAMP Emax; for cAMP pEC50: compound alone, mean of ≥3 independent experiments ± standard error; for PAM pEC50: cAMP assay in the presence of 1 μM propionate; for allosteric effect on propionate response: cAMP assay together with propionate (56: 30 μM compound; 62, 63: 1 μM propionate)
Method: The ligands were initially screened in a human FFA3-dependent [^35S]GTPγS binding assay as this assay reflects receptor-mediated activation of Gi/o proteins and is known to generally correlate well with ligand affinity.[30] Analogues of particular interest were tested further in a cAMP inhibition assay as this is an important downstream effect of Gi-activation. […] It is furthermore performed in whole cells, is more downstream, includes G protein signal amplification, and therefore better reflects a more natural ligand–receptor response.
HEK293 Flp-In T-Rex cells stably transfected with FFA3-eYFP receptors were incubated overnight with doxycycline to induce expression, then harvested, and cryopreserved. On the day of each experiment, cells were thawed and resuspended in stimulation buffer. Assays were carried out using a 384-well plate format with 3000 cells/well using the CisBio cAMP GS dynamic kit as per manufacturer’s protocol. Compounds were tested for the ability to inhibit 0.3 μM forskolin-induced cAMP production after co-incubation for 1 h. Reactions were measured using a PHERAstar FS plate reader (BMGLabtech, Aylesbury, UK).

[1] = read-out: EC50 (cAMP assay), hFFA3

SMILES	EC50	Emax	cAMP pEC50 (hFFA3)	PAM pEC50	allosteric effect on propionate response	increase in potency (cyclopentyl relative to cyclohexyl (31))	EC50 [1]
CC1=C(C(=O)Nc2ccccc2C)[C@@H](c2ccco2)C2=C(CCCC2=O)N1 [(S)-1]	2000 nM	–	–	–	–	–	–
CCC1=C(C(=O)Nc2ccccc2C)C(c2ccco2)C2=C(CCCC2=O)N1 (stereo not shown) [Compound 22, 2-Ethyl-4-(furan-2-yl)-5-oxo-N-(o-tolyl)-1,4,5,6,7,8-hexahydroquinoline-3-carboxamide]	–	95%	5.47 ± 0.04	–	–	–	–
Cc1ccccc1NC(=O)C1=C(c2ccccc2)NC2=C(C(=O)CCC2)C1c1ccco1 (stereo not shown) [Compound 23, 4-(Furan-2-yl)-5-oxo-2-phenyl-N-(o-tolyl)-1,4,5,6,7,8-hexahydroquinoline-3-carboxamide]	–	–	completely inactive and nr^c	–	–	–	–
CC1=C(C(=O)Nc2ccccc2C)C(CC(C)C)C(C(=O)c2ccccc2)=C(C)N1 (stereo not shown) [Compound 25, 5-Benzoyl-4-isobutyl-2,6-dimethyl-N-(o-tolyl)-1,4-dihydropyridine-3-carboxamide]	> 100000 nM	–	nr^c	nr^c	–	–	–
COC(=O)C1=C(C)NC(C)=C(C(=O)Nc2ccccc2C)C1CC(C)C (stereo not shown) [Compound 26, Methyl 4-isobutyl-2,6-dimethyl-5-(o-tolylcarbamoyl)-1,4-dihydropyridine-3-carboxylate]	> 100000 nM	–	nr^c	6.16 ± 0.12	PAM	–	–
CC1=C(C#N)C(CC(C)C)C(C(=O)Nc2ccccc2C)=C(C)N1 (stereo not shown) [Compound 27, 5-Cyano-4-isobutyl-2,6-dimethyl-N-(o-tolyl)-1,4-dihydropyridine-3-carboxamide]	–	–	3.99 ± 0.01	6.42 ± 0.09	–	–	–
COC(=O)C1=C(C)NC2=C(C(=O)CCC2)C1CC(C)C (stereo not shown) [Compound 28, Methyl 4-isobutyl-2-methyl-5-oxo-1,4,5,6,7,8-hexahydroquinoline-3-carboxylate]	–	–	inactive alone and nr^c	6.21 ± 0.10	PAM properties	–	–
CC1=C(C(=O)c2ccccc2)C(CC(C)C)C2=C(CCCC2=O)N1 (stereo not shown) [Compound 29, 3-Benzoyl-4-isobutyl-2-methyl-4,6,7,8-tetrahydroquinolin-5(1H)-one]	–	–	inactive alone and nr^c	>4	PAM properties	–	–
CCC(C)C1C(C(=O)Nc2ccccc2C)=C(C)NC2=C1C(=O)CCC2 (stereo not shown) [Compound 30, 4-(sec-Butyl)-2-methyl-5-oxo-N-(o-tolyl)-1,4,5,6,7,8-hexahydroquinoline-3-carboxamide]	–	110%	5.00 ± 0.07	6.30 ± 0.04	–	–	–
CC1=C(C(=O)Nc2ccccc2C)C(C2CCCCC2)C2=C(CCCC2=O)N1 (stereo not shown) [Compound 31, 4-Cyclohexyl-2-methyl-5-oxo-N-(o-tolyl)-1,4,5,6,7,8-hexahydroquinoline-3-carboxamide]	–	91%	5.26 ± 0.10	–	–	–	–
CC1=C(C(=O)Nc2ccccc2C)C(C2CCCC2)C2=C(CCCC2=O)N1 (stereo not shown) [Compound 32, 4-Cyclopentyl-2-methyl-5-oxo-N-(o-tolyl)-1,4,5,6,7,8-hexahydroquinoline-3-carboxamide]	–	102%	6.54 ± 0.02	–	–	20 fold	288 nM
CC1=C(C(=O)Nc2ccccc2C)C(C2CC2)C2=C(CCCC2=O)N1 (stereo not shown) [Compound 33, 4-Cyclopropyl-2-methyl-5-oxo-N-(o-tolyl)-1,4,5,6,7,8-hexahydroquinoline-3-carboxamide]	–	102%	6.22 ± 0.10	–	–	–	600 nM
CCC1C(C(=O)Nc2ccccc2C)=C(C)NC2=C1C(=O)CCC2 (stereo not shown) [Compound 34, 4-Ethyl-2-methyl-5-oxo-N-(o-tolyl)-1,4,5,6,7,8-hexahydroquinoline-3-carboxamide]	–	106%	5.38 ± 0.13	6.45 ± 0.16	–	–	–
CCCCC1C(C(=O)Nc2ccccc2C)=C(C)NC2=C1C(=O)CCC2 (stereo not shown) [Compound 36, 2-Methyl-5-oxo-4-butyl-N-(o-tolyl)-1,4,5,6,7,8-hexahydroquinoline-3-carboxamide]	–	–	5.86 ± 0.03	6.58 ± 0.06	–	–	–
CCCCCC1C(C(=O)Nc2ccccc2C)=C(C)NC2=C1C(=O)CCC2 (stereo not shown) [Compound 37, 2-Methyl-5-oxo-4-pentyl-N-(o-tolyl)-1,4,5,6,7,8-hexahydroquinoline-3-carboxamide]	–	–	5.60 ± 0.17	6.40 ± 0.10	–	–	–
CC1=C(C(=O)Nc2ccccc2C)C(CCc2ccccc2)C2=C(CCCC2=O)N1 (stereo not shown) [Compound 38, 2-Methyl-5-oxo-4-phenethyl-N-(o-tolyl)-1,4,5,6,7,8-hexahydroquinoline-3-carboxamide]	> 10000 nM	97%	4.21 ± 0.27	6.23 ± 0.03	–	–	–
CC1=C(C(=O)Nc2ccccc2C)C(/C=C/c2ccccc2)C2=C(CCCC2=O)N1 (stereo not shown) [Compound 39]	> 10000 nM	113%	4.34 ± 0.18	6.14 ± 0.07	–	–	–
CC1=C(C(=O)Nc2cc(Cl)ccc2Cl)C(CCn2cccn2)C2=C(CCCC2=O)N1 (stereo not shown) [Compound 40, 4-(2-(1H-Pyrazol-1-yl)ethyl)-N-(2,5-dichlorophenyl)-2-methyl-5-oxo-1,4,5,6,7,8-hexahydroquinoline-3-carboxamide]	> 10000 nM	96%	4.95 ± 0.08	–	–	–	–
CC1=C(C(=O)Nc2ccccc2C)C(c2cccn2C)C2=C(CCCC2=O)N1 (stereo not shown) [Compound 41, 2-Methyl-4-(1-methyl-1H-pyrrol-2-yl)-5-oxo-N-(o-tolyl)-1,4,5,6,7,8-hexahydroquinoline-3-carboxamide]	–	97%	4.45 ± 0.09	–	–	–	–
CC1=C(C(=O)Nc2ccccc2C)C(c2ccc(C)o2)C2=C(CCCC2=O)N1 (stereo not shown) [Compound 42, 2-Methyl-4-(5-methylfuran-2-yl)-5-oxo-N-(o-tolyl)-1,4,5,6,7,8-hexahydroquinoline-3-carboxamide]	–	100%	5.96 ± 0.03	–	–	–	–
CC1=C(C(=O)Nc2ccccc2C)C(c2cc(C)cs2)C2=C(CCCC2=O)N1 (stereo not shown) [Compound 43, 2-Methyl-4-(4-methylthiophen-2-yl)-5-oxo-N-(o-tolyl)-1,4,5,6,7,8-hexahydroquinoline-3-carboxamide]	–	102%	5.86 ± 0.04	–	–	–	–
CC1=C(C(=O)Nc2ccccc2C)C(c2ccc(Br)o2)C2=C(CCCC2=O)N1 (stereo not shown) [Compound 44, 4-(5-Bromofuran-2-yl)-2-methyl-5-oxo-N-(o-tolyl)-1,4,5,6,7,8-hexahydroquinoline-3-carboxamide]	–	95%	6.61 ± 0.02	–	–	–	–
CC1=C(C(=O)Nc2ccccc2C)C(c2cc3ccccc3o2)C2=C(CCCC2=O)N1 (stereo not shown) [Compound 45, 4-(Benzofuran-2-yl)-2-methyl-5-oxo-N-(o-tolyl)-1,4,5,6,7,8-hexahydroquinoline-3-carboxamide]	–	98%	6.00 ± 0.02	–	–	–	–
CC1=C(C(=O)Nc2ccccc2C)C(c2csc3ccccc23)C2=C(CCCC2=O)N1 (stereo not shown) [Compound 46, 4-(Benzo[b]thiophen-3-yl)-2-methyl-5-oxo-N-(o-tolyl)-1,4,5,6,7,8-hexahydroquinoline-3-carboxamide]	–	95%	5.11 ± 0.04	–	–	–	–
